Experiment [1] concerns TGF-β-stimulated SMAD3 phosphorylation in BEAS-2B cells. Briefly: Cellular ALK5 potency assay, inhibition of TGF-β stimulated pSMAD3 formation in BEAS-2B cells. It is filed as cell-based. As to conditions: Homo sapiens; inhibition of TGF-β stimulated pSMAD3 formation, BEAS-2B cells; read-out: BEAS2B pIC50 (converted). Put shortly:
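AlphaLISA pSMAD3 read-out, beads incubated overnight. Human BEAS-2B cells: 1 h compound preincubation (37 °C, 5% CO2), then 30 min TGF-β at 10 ng/mL final, immediate lysis. Values are pIC50 relative to stimulated, compound-free baseline.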

The target in experiment [2] is T1, recombinant human ALK5 (TGF-βR1) protein (Homo sapiens, UniProt P36897).
T1 construct: purchased Life Technologies PR9075A
T1 sequence (P36897 34-503): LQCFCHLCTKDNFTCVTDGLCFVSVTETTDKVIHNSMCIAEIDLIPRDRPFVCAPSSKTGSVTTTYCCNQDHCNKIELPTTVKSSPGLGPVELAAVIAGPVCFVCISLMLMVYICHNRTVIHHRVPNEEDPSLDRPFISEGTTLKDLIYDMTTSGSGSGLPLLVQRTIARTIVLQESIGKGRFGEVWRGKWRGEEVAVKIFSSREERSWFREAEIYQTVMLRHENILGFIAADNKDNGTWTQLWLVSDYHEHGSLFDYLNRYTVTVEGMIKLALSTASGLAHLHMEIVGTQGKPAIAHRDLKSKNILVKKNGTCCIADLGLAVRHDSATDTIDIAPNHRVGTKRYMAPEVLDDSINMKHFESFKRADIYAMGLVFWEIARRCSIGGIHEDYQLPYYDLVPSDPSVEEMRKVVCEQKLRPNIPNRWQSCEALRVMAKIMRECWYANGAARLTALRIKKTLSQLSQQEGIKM
Put plainly: Biochemical ALK5 (TGF-βR1) assay to measure pKi (LANCE Ultra ULight kinase assay). The settings on record: apparent pKi from pIC50 by Cheng-Prusoff, read-out: ALK5 pKi (converted). Put shortly: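 Compounds (10 μM to 25 pM) preincubated 60 minutes at room temperature with enzyme, then reaction run 60 minutes at 37° C with ATP added as 125 μM (5× final). Stopped with EDTA plus Eu-anti-phospho-Topoisomerase 2-alpha (Thr1342) antibody, TR-FRET read at 665 nm; pIC50 converted to pKi via Cheng-Prusoff.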
In general terms: TR-FRET usually uses a lanthanide donor and a delayed reading to cut background.

Regarding `Cc1nc(-c2n[nH]cc2-c2ccc3ncc(-c4ncc5n4CCN5)cc3n2)ccc1F` [Compound 174, 7-(2,3-dihydro-1H-imidazo[1,2-c]imidazol-5-yl)-2-[3-(5-fluoro-6-methyl-2-pyridyl)-1H-pyrazol-4-yl]-1,5-naphthyridine], the IC50 in experiment [1] was 200 to 1260 nM. For the same compound, the Ki in experiment [2] was 0.0398 to 0.316 nM.

As for `COC(=O)c1cnc2ccc(-c3cn[nH]c3-c3cccc(C)n3)nc2c1` [Compound 53, methyl 6-[5-(6-methyl-2-pyridyl)-1H-pyrazol-4-yl]-1,5-naphthyridine-3-carboxylate], in experiment [1], the IC50 was 25.1 to 158 nM. In experiment [2], the Ki was 0.0398 to 0.316 nM.

Consider `Cc1cccc(-c2n[nH]cc2-c2ccc3ncc(N4CCCNCC4)cc3n2)n1` [Compound 349, 7-(1,4-diazepan-1-yl)-2-[3-(6-methyl-2-pyridyl)-1H-pyrazol-4-yl]-1,5-naphthyridine], for which the IC50 in experiment [1] is 25.1 to 158 nM. Besides, the Ki in experiment [2] is 0.0398 to 0.316 nM.

With `Cc1nc(-c2n[nH]cc2-c2ccc3ncc(NCCN4CCN(C(C)C)CC4)cc3c2)ccc1F` [Compound 166, 6-[3-(5-fluoro-6-methyl-2-pyridyl)-1H-pyrazol-4-yl]-N-[2-(4-isopropylpiperazin-1-yl)ethyl]quinolin-3-amine], the IC50 in experiment [1] was 25.1 to 158 nM. For the same compound, the Ki in experiment [2] is 0.0398 to 0.316 nM.

Take `COC(=O)c1ccnc2ccc(-c3c(OC)n[nH]c3-c3cccc(C)n3)nc12` [Compound 864, methyl 6-[3-methoxy-5-(6-methyl-2-pyridyl)-1H-pyrazol-4-yl]-1,5-naphthyridine-4-carboxylate]: in experiment [1], the IC50 was 200 to 1260 nM. Also, the Ki in experiment [2] was 0.398 to 3.16 nM.

As for `Cc1nc(-c2nc3ccccn3c2-c2ccc3ncc(-c4nnn5c4CNCC5)cc3n2)ccc1F` [Compound 202, 2-[2-(5-fluoro-6-methyl-2-pyridyl)imidazo[1,2-a]pyridin-3-yl]-7-(4,5,6,7-tetrahydrotriazolo[1,5-a]pyrazin-3-yl)-1,5-naphthyridine], in experiment [1], the IC50 was 200 to 1260 nM. For the same compound, the Ki in experiment [2] was 0.0398 to 0.316 nM.

With `Cc1cccc(-c2nnn(Cc3ccccc3)c2-c2ccc3ncc(N4CCC(N5CCN(C)CC5)CC4)cc3n2)n1` [Compound 475, 2-[3-benzyl-5-(6-methyl-2-pyridyl)triazol-4-yl]-7-[4-(4-methylpiperazin-1-yl)-1-piperidyl]-1,5-naphthyridine], the IC50 in experiment [1] is 200 to 1260 nM. For the same compound, the Ki in experiment [2] is 0.0398 to 0.316 nM.

With `CCOC(=O)CCc1cnc2ccc(-c3c[nH]nc3-c3cccc(C)n3)nc2c1` [Compound 499, ethyl 3-[6-[3-(6-methyl-2-pyridyl)-1H-pyrazol-4-yl]-1,5-naphthyridin-3-yl]propanoate], the IC50 in experiment [1] was 25.1 to 158 nM. Further, the Ki in experiment [2] was 0.0398 to 0.316 nM.

In the case of `Cc1cccc(-c2[nH]ncc2-c2ccc3ncc(C(=O)OCCN4CCCCC4)cc3c2)n1` [Compound 1173, 2-(1-piperidyl)ethyl 6-[5-(6-methyl-2-pyridyl)-1H-pyrazol-4-yl]quinoline-3-carboxylate], the IC50 in experiment [1] is 25.1 to 158 nM. For the same compound, the Ki in experiment [2] was 0.0398 to 0.316 nM.

In the case of `Cc1cccc(-c2[nH]cnc2-c2ccc3ncc(NCCC4CCCNC4)cc3c2)n1` (stereo not drawn) [Compound 222, 6-[5-(6-methyl-2-pyridyl)-1H-imidazol-4-yl]-N-[2-(3-piperidyl)ethyl]quinolin-3-amine], the IC50 in experiment [1] is 25.1 to 158 nM. Also, the Ki in experiment [2] is 0.0398 to 0.316 nM.

With `Cc1cccc(-c2[nH]cnc2-c2ccc3ncc(C4=CCN(C(=O)C5CCNCC5)CC4)cc3c2)n1` [Compound 778, [4-[6-[5-(6-methyl-2-pyridyl)-1H-imidazol-4-yl]-3-quinolyl]-3,6-dihydro-2H-pyridin-1-yl]-(4-piperidyl)methanone], the IC50 in experiment [1] is 25.1 to 158 nM. In addition, the Ki in experiment [2] is 0.0398 to 0.316 nM.

With `Cc1cccc(-c2[nH]cnc2-c2ccc3ncc(-c4cccc(C(=O)OCC5CNC5)n4)cc3c2)n1` [Compound 1044, azetidin-3-ylmethyl 6-[6-[5-(6-methyl-2-pyridyl)-1H-imidazol-4-yl]-3-quinolyl]pyridine-2-carboxylate], in experiment [1], the IC50 was 200 to 1260 nM. The Ki in experiment [2] is less than 0.0316 nM.

Take `Cc1cccc(-c2[nH]cnc2-c2ccc3ncc(C4=CCCCC4)cc3c2)n1` [Compound 147, 3-(cyclohexen-1-yl)-6-[5-(6-methyl-2-pyridyl)-1H-imidazol-4-yl]quinoline]: the IC50 in experiment [1] was 25.1 to 158 nM. The Ki in experiment [2] is 0.0398 to 0.316 nM.

`COc1n[nH]c(-c2cccc(C)n2)c1-c1ccc2ncc(-c3cccnc3)cc2n1` [Compound 105, 2-(5-methoxy-3-(6-methylpyridin-2-yl)-1H-pyrazol-4-yl)-7-(pyridin-3-yl)-1,5-naphthyridine]: in experiment [1], the IC50 is 25.1 to 158 nM. Besides, in experiment [2], the Ki was 0.0398 to 0.316 nM.

Regarding `Cc1cccc(-c2[nH]ncc2-c2ccc3nccc(C(=O)OC4CCNCC4)c3c2)n1` [Compound 1210, 4-piperidyl 6-[5-(6-methyl-2-pyridyl)-1H-pyrazol-4-yl]quinoline-4-carboxylate], the IC50 in experiment [1] was 25.1 to 158 nM. Moreover, in experiment [2], the Ki was 0.0398 to 0.316 nM.

With `Cc1cccc(-c2[nH]cnc2-c2ccc3ncc(-c4ccc(C(=O)O[C@@H]5CCN(C)C5)cc4)cc3c2)n1` [Compound 158, [(3R)-1-methylpyrrolidin-3-yl] 4-[6-[5-(6-methyl-2-pyridyl)-1H-imidazol-4-yl]-3-quinolyl]benzoate], the IC50 in experiment [1] is 25.1 to 158 nM. Also, the Ki in experiment [2] is 0.0398 to 0.316 nM.

Regarding `Cc1cccc(-c2[nH]cnc2-c2ccc3ncc(-c4ccc(C(=O)O)nc4)cc3c2)n1` [Compound 541, 5-(6-(5-(6-methylpyridin-2-yl)-1H-imidazol-4-yl)quinolin-3-yl)picolinic Acid], the IC50 in experiment [1] is 1580 to 10000 nM. For the same compound, the Ki in experiment [2] was less than 0.0316 nM.

For `COC(=O)c1cccc(-c2cnc3ccc(-c4c[nH]nc4-c4cccc(C)n4)nc3c2)c1` [Compound 369, methyl 3-[6-[3-(6-methyl-2-pyridyl)-1H-pyrazol-4-yl]-1,5-naphthyridin-3-yl]benzoate], in experiment [1], the IC50 was less than 20 nM. For the same compound, in experiment [2], the Ki was less than 0.0316 nM.

On to `Cc1nc(-c2nc3ccccn3c2-c2ccc3ncc(N4CCC(N(C)C)C4)cc3c2)ccc1F` (racemic) [Compound 544, rac-(3S)-1-[6-[2-(5-fluoro-6-methyl-2-pyridyl)imidazo[1,2-a]pyridin-3-yl]-3-quinolyl]-N,N-dimethyl-pyrrolidin-3-amine], for which the IC50 in experiment [1] is 25.1 to 158 nM. The Ki in experiment [2] was 0.0398 to 0.316 nM.

On to `Cc1cccc(-c2[nH]ncc2-c2ccc3nccc(C(=O)OC[C@H]4CCCN4)c3c2)n1` [Compound 1223, [(2R)-pyrrolidin-2-yl]methyl 6-[5-(6-methyl-2-pyridyl)-1H-pyrazol-4-yl]quinoline-4-carboxylate], for which, in experiment [1], the IC50 was 25.1 to 158 nM. In experiment [2], the Ki is 3.98 to 31.6 nM.

Consider `Cc1cccc(-c2[nH]ncc2-c2ccc3ncc(C(=O)O[C@H]4CC[C@@](C)(N)CC4)cc3c2)n1` [Compound 1177, (4-amino-4-methyl-cyclohexyl) 6-[5-(6-methyl-2-pyridyl)-1H-pyrazol-4-yl]quinoline-3-carboxylate], for which the IC50 in experiment [1] was 25.1 to 158 nM. For the same compound, the Ki in experiment [2] is 0.0398 to 0.316 nM.

With `Cc1cccc(-c2[nH]cnc2-c2ccc3ncc(NCCN4CCC[C@@H](N)C4)cc3c2)n1` [Compound 730, N-[2-[(3R)-3-amino-1-piperidyl]ethyl]-6-[5-(6-methyl-2-pyridyl)-1H-imidazol-4-yl]quinolin-3-amine], the IC50 in experiment [1] is 25.1 to 158 nM. Moreover, the Ki in experiment [2] was 0.0398 to 0.316 nM.

`Cc1cccc(-c2[nH]ncc2-c2ccc3ncc(C(=O)O)cc3n2)n1` [Compound 553, 6-[5-(6-methyl-2-pyridyl)-1H-pyrazol-4-yl]-1,5-naphthyridine-3-carboxylic acid]: the IC50 in experiment [1] was 1580 to 10000 nM. For the same compound, in experiment [2], the Ki was 3.98 to 31.6 nM.

On to `Cc1cccc(-c2[nH]cnc2-c2ccc3ncc(-c4cc(C(=O)OC5CNC5)cs4)cc3c2)n1` [Compound 1057, azetidin-3-yl 5-[6-[5-(6-methyl-2-pyridyl)-1H-imidazol-4-yl]-3-quinolyl]thiophene-3-carboxylate], for which, in experiment [1], the IC50 is 25.1 to 158 nM. Further, the Ki in experiment [2] is less than 0.0316 nM.

Regarding `Cc1cccc(-c2[nH]cnc2-c2ccc3ncc(C(=O)OCCCN4CCNCC4)cc3c2)n1` [Compound 897, 3-(piperazin-1-yl)propyl 6-(5-(6-methylpyridin-2-yl)-1H-imidazol-4-yl)quinoline-3-carboxylate], the IC50 in experiment [1] is 25.1 to 158 nM. Further, the Ki in experiment [2] is 0.0398 to 0.316 nM.

`Cc1cccc(-c2n[nH]cc2-c2ccc3ncc(-c4cnn(CCN(C)C)c4)cc3n2)n1` [Compound 221, N,N-dimethyl-2-[4-[6-[3-(6-methyl-2-pyridyl)-1H-pyrazol-4-yl]-1,5-naphthyridin-3-yl]pyrazol-1-yl]ethanamine]: the IC50 in experiment [1] is 25.1 to 158 nM. Also, in experiment [2], the Ki is less than 0.0316 nM.

In the case of `Cc1cccc(-c2[nH]cnc2-c2ccc3ncc(-c4ccc(C(=O)O)cc4)cc3c2)n1` [Compound 145, 4-[6-[5-(6-methyl-2-pyridyl)-1H-imidazol-4-yl]-3-quinolyl]benzoic acid], the IC50 in experiment [1] was 200 to 1260 nM. For the same compound, the Ki in experiment [2] was 0.0398 to 0.316 nM.
